By IC50 is commonly meant the point on the concentration scale where inhibition reaches its midpoint.

The source of these data is patent US20110046223A1, “TREATMENT OF NEUROFIBROMATOSIS” (RAMOT AT TEL-AVIV UNIVERSITY LTD., priority 2006, published 2011).

In one assay the test system is Ras-GTP. Description: steady-state Ras-GTP, GST-RBD pull-down assay. It counts as cell-based, human. The conditions noted are these: 75 μM FTS, 48 hours, TS265P21, 90-8, and ST88-14 cells, P<0.03. On the procedure: Unless otherwise indicated, cells were lysed 48 hours after being treated with lysis buffer, as described in Haklai, et al., supra. […] Protein bands were visualized by ECL and quantified by densitometry with Image Master VDS-CL (Amersham) using TINA 2.0 software (Ray Tests). To obtain reliable comparisons between replicated experiments for statistical analysis, a standardization procedure was used, in which the density of each given protein band as recorded with its specific Ab, was normalized. […] The standard average density was defined as 1.0, and each of the individually determined bands was related to this value. […] Actin cytoskeletal elements were labeled with rhodamine-phalloidin, and digital fluorescence images were collected on a Zeiss LSM 510 confocal microscope fitted with fluorescein and rhodamine filters, as described in Gana-Weisz, M., et al., supra.
To determine whether the steady-state levels of active Ras in the MPNST cell lines correlated with neurofibromin deficiency, the GST-Ras binding domain of Raf-1 (RBD) pull-down assay and Western immunoblotting with anti-Ras Ab was performed. […] Thus, the relatively large amounts of Ras-GTP detected in the MPNST cell lines and the relatively small amounts in the non-NF-1 MPNST (FIG. 1D) correlated well with the observed neurofibromin deficiency (FIG. 1C). […]

Another assay relates to T265P21 cells. The assay can be described thus: cell growth, direct counting of cells, FTS dose-response. It counts as cell-based. The settings on record: Homo sapiens, 72 h, grown three days, FTS 12.5-100 μM, means±SD, n=4, read-out: estimated IC50, decrease in cell number. On the procedure: (§1) The human NF-1 MPNST cell lines ST88-14, T265P21 and 90-8 and the non-NF-1 human MPNST cell line STS26T were obtained from Dr. Nancy Ratner. T265P21, 90-8, and ST88-14 cells were maintained in RPMI/15% fetal calf serum (FCS) medium and STS26T cells were maintained in DMEM/10% FCS, as described in Weisz, B., et al., supra. Cells were plated at a density of 1×10^6 cells per 10-cm plate for biochemical and immunoblotting assays, 2.5×10^3 cells/well in 24-well plates for cell-growth assays, or on glass cover slips (5×10^4 cells per 35-mm dish) for labeling of actin cytoskeletal elements. The cells were incubated for 24 hours, treated with the indicated concentration of FTS or with the vehicle (0.1% DMSO) (control) for the times specified in each of the experiments, and then subjected to the various assays as described below. The effect of FTS on cell growth was estimated by direct counting of cells collected from each well, as described in Weisz, B., et al., supra.
(§2) To determine the effects of the Ras inhibitor FTS on the growth rates of the NF-1 cell lines ST88-14, 90-8, T265P21 and the non-NF-1 STS26T cells, the cells were grown for two days in the absence and in the presence of 50 μM FTS, and then photomicrographed. […] Additionally, cells were grown for three days and then detached, collected, and counted as described in Methods to determine dose-dependent inhibition by FTS.

Another assay concerns 90-8 cells. The description is as above. The format is cell-based. The settings on record: Homo sapiens, 72 h, grown three days, FTS 12.5-100 μM, means±SD, n=4, read-out: estimated IC50, decrease in cell number. On the procedure: as §1, §2
The subject of a further assay is STS26T cells. The description is as above. It counts as cell-based. The conditions noted are these: Homo sapiens, STS-26T, 72 h, grown three days, FTS 12.5-100 μM, means±SD, n=4, read-out: estimated IC50, decrease in cell number. On the procedure: as §1, §2
The subject of another assay is ST88-14 cells. The assay is described as above. It counts as cell-based. The conditions noted are these: Homo sapiens, 72 h, grown three days, FTS 12.5-100 μM, means±SD, n=4, read-out: estimated IC50, decrease in cell number. On the procedure: as §1, §2

As for `CC(C)=CCC/C(C)=C/CC/C(C)=C/CSc1ccccc1C(=O)O` [FTS, S-farnesylthiosalicylic acid], the “reduction in steady-state levels of Ras-GTP” value in the assay with Ras-GTP is on record as 25%-55%. For the same compound, the IC50 with T265P21 cells was 35 ± 7 µM; in the assay on 90-8 cells, 42 ± 9 µM; with STS26T cells it was 53 ± 10 µM; in the assay with ST88-14 cells, 42 ± 13 µM.
